“And” between values parts separate entries of the source, which are not always exact repeats. Equal values may be shown once. Toxic doses and inconclusive results are not listed.
Test system: L1210 leukemia ip in BDF1 mice, survival T/C
Assay: NCI In Vivo Anticancer Drug Screen. Data for tumor model L1210 Leukemia (intraperitoneal) in B6D2F1 (BDF1) mice
Details: endpoint: mean survival time, higher = longer survival
Procedure, shortened: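 Ratio derived from survival: compound-dosed mice over vehicle-dosed mice, all bearing a transplantable tumor.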

[1] = dose: 25.0 mg/kg/injection, schedule: Q04DX003 (ip), vehicle: Klucel (hydroxypropylcellulose) (HPC)
[2] = dose: 50.0 mg/kg/injection, schedule: Q04DX003 (ip), vehicle: Klucel (hydroxypropylcellulose) (HPC)
[3] = dose: 100.0 mg/kg/injection, schedule: Q04DX003 (ip), vehicle: Klucel (hydroxypropylcellulose) (HPC)
[4] = dose: 100.0 mg/kg/injection, schedule: Q01DX009 (ip), vehicle: saline with Tween-80
[5] = dose: 100.0 mg/kg/injection, schedule: Q04DX003 (ip), vehicle: saline with Tween-80
[6] = dose: 200.0 mg/kg/injection, schedule: Q01DX009 (ip), vehicle: saline with Tween-80
[7] = dose: 400.0 mg/kg/injection, schedule: Q01DX009 (ip), vehicle: saline with Tween-80
[8] = dose: 100.0 mg/kg/injection, schedule: Q01DX009 (ip), vehicle: Klucel (hydroxypropylcellulose) (HPC)
[9] = dose: 200.0 mg/kg/injection, schedule: Q01DX009 (ip), vehicle: Klucel (hydroxypropylcellulose) (HPC)
[10] = dose: 200.0 mg/kg/injection, schedule: Q04DX003 (ip), vehicle: Klucel (hydroxypropylcellulose) (HPC)
[11] = dose: 400.0 mg/kg/injection, schedule: Q01DX009 (ip), vehicle: Klucel (hydroxypropylcellulose) (HPC)
[12] = dose: 400.0 mg/kg/injection, schedule: Q04DX003 (ip), vehicle: Klucel (hydroxypropylcellulose) (HPC)

Question: What does the source list for `CN(C(=O)CCl)c1ccccc1`?
Answer: T/C (dose: 12.5 mg/kg/injection, schedule: Q01DX009 (ip), vehicle: Klucel (hydroxypropylcellulose) (HPC)): 92 % of control; T/C (dose: 25.0 mg/kg/injection, schedule: Q01DX009 (ip), vehicle: Klucel (hydroxypropylcellulose) (HPC)): 98 % of control; T/C [1]: 104 % of control; T/C (dose: 50.0 mg/kg/injection, schedule: Q01DX009 (ip), vehicle: Klucel (hydroxypropylcellulose) (HPC)): 93 % of control; T/C [2]: 98 % of control; T/C [3]: 88 % of control

Question: What does the source list for `COc1cc(N=Nc2ccc([N+](=O)[O-])cc2C)ccc1N`?
Answer: T/C (dose: 100.0 mg/kg/injection, schedule: Q01DX001 (ip), vehicle: other): 97 % of control; T/C (dose: 200.0 mg/kg/injection, schedule: Q01DX001 (ip), vehicle: other): 97 % of control; T/C (dose: 400.0 mg/kg/injection, schedule: Q01DX001 (ip), vehicle: other): 86 % of control

Question: What does the source list for `COc1cc2c(cc1C(C)C)CCC1C(C)(C#N)CCCC21C` (centres undefined)?
Answer: T/C [4]: 96 % of control; T/C [5]: 100 % of control; T/C [6]: 89 % of control; T/C (dose: 200.0 mg/kg/injection, schedule: Q04DX003 (ip), vehicle: saline with Tween-80): 96 % of control; T/C [7]: 92 % of control; T/C (dose: 400.0 mg/kg/injection, schedule: Q04DX003 (ip), vehicle: saline with Tween-80): 100 % of control

Question: `CC(C)C1(C(=O)O)SCCCS1` was tested. Which T/C (dose: 50.0 mg/kg/injection, schedule: Q04DX003 (ip), vehicle: saline) did it give?
Answer: 100 % of control

Question: And the T/C (dose: 100.0 mg/kg/injection, schedule: Q04DX003 (ip), vehicle: saline)?
Answer: 110 % of control

Question: And the T/C (dose: 200.0 mg/kg/injection, schedule: Q04DX003 (ip), vehicle: saline)?
Answer: 102 % of control

Question: And the T/C (dose: 400.0 mg/kg/injection, schedule: Q04DX003 (ip), vehicle: saline)?
Answer: 98 % of control

Question: `C=CCc1ccc(OCCOCCNC2CC3CCC2(C)C3(C)C)c(OC)c1` (centres undefined) was tested. Which T/C [3] did it give?
Answer: 89 % of control

Question: Which results are given for `O=[N+]([O-])c1ccc(Cl)c(OCCBr)c1`?
Answer: T/C (dose: 100.0 mg/kg/injection, schedule: Q01DX009 (ip), vehicle: gum acacia): 95 % of control; T/C (dose: 200.0 mg/kg/injection, schedule: Q01DX009 (ip), vehicle: gum acacia): 94 % of control; T/C (dose: 400.0 mg/kg/injection, schedule: Q01DX009 (ip), vehicle: gum acacia): 89 % of control

Question: How did the T/C [8] turn out when `O=C(Nc1ccccc1Cl)Oc1ccccc1Cc1ccccc1` was run?
Answer: 96 % of control

Question: And the T/C [3]?
Answer: 107 % of control

Question: What about the T/C [9] of the same molecule?
Answer: 93 % of control

Question: And the T/C [10]?
Answer: 90 % of control

Question: And the T/C [11]?
Answer: 115 % of control

Question: What about the T/C [12] of the same molecule?
Answer: 93 % of control

Question: With `CC1(c2ccccc2)OCC(CCl)O1` (centres undefined) as the molecule, how does the T/C (dose: 222.0 mg/kg/injection, schedule: Q01DX Z (ip), vehicle: saline) read?
Answer: 95 % of control

Question: And the T/C (dose: 333.0 mg/kg/injection, schedule: Q01DX Z (ip), vehicle: saline)?
Answer: 95 % of control

Question: What about the T/C (dose: 500.0 mg/kg/injection, schedule: Q01DX Z (ip), vehicle: saline) of the same molecule?
Answer: 91 % of control

Question: `O=C(O)c1nnn(Cc2ccccc2)c1C(=O)O` was tested. Which T/C (dose: 100.0 mg/kg/injection, schedule: Q04DX002 (ip), vehicle: saline) did it give?
Answer: 104 % of control

Question: And the T/C (dose: 200.0 mg/kg/injection, schedule: Q04DX002 (ip), vehicle: saline)?
Answer: 104 % of control

Question: What about the T/C (dose: 400.0 mg/kg/injection, schedule: Q04DX002 (ip), vehicle: saline) of the same molecule?
Answer: 96 % of control

Question: Which results are given for `CCCOP(=S)(NCCOC)OCCC`?
Answer: T/C [4]: 97 % of control; T/C [6]: 100 % of control; T/C [7]: 89 % of control

Question: What does the source list for `O=C(O)/C=C/C(=O)Nc1cccc(NC(=O)/C=C/C(=O)O)c1`?
Answer: T/C [3]: 94 % of control; T/C [10]: 97 % of control; T/C [12]: 96 % of control

Question: What does the source list for `COc1ccc(OC)c2c(OC(C)=O)c3ccccc3c(OC(C)=O)c12`?
Answer: T/C (dose: 50.0 mg/kg/injection, schedule: Q01DX001 (ip), vehicle: carboxymethylcellulose (CMC)): 98 % of control; T/C (dose: 100.0 mg/kg/injection, schedule: Q01DX001 (ip), vehicle: carboxymethylcellulose (CMC)): 108 % of control; T/C (dose: 200.0 mg/kg/injection, schedule: Q01DX001 (ip), vehicle: carboxymethylcellulose (CMC)): 98 % of control; T/C (dose: 400.0 mg/kg/injection, schedule: Q01DX001 (ip), vehicle: carboxymethylcellulose (CMC)): 110 % of control

Question: How did the T/C (dose: 12.5 mg/kg/injection, schedule: Q04DX003 (ip), vehicle: Klucel (hydroxypropylcellulose) (HPC)) turn out when `C=C/C=C/CCN1CC1` was run?
Answer: 114 % of control

Question: And the T/C [1]?
Answer: 112 % of control

Question: What about the T/C [2] of the same molecule?
Answer: 106 % of control

Question: `CN1C(=O)CCN(CCCN2CCC(=O)N(C)C2=S)C1=S` was tested. Which T/C (dose: 100.0 mg/kg/injection, schedule: Q04DX002 (ip), vehicle: saline with Tween-80) did it give?
Answer: 95 % of control

Question: And the T/C (dose: 200.0 mg/kg/injection, schedule: Q04DX002 (ip), vehicle: saline with Tween-80)?
Answer: 95 % of control

Question: What about the T/C (dose: 400.0 mg/kg/injection, schedule: Q04DX002 (ip), vehicle: saline with Tween-80) of the same molecule?
Answer: 88 % of control

Question: Which T/C (dose: 100.0 mg/kg/injection, schedule: Q01DX001 (ip), vehicle: saline) does the source give for `COC(=O)c1ccc(N(C)CCC(=O)COC(C)=O)cc1` here?
Answer: 103 % of control

Question: What about the T/C (dose: 200.0 mg/kg/injection, schedule: Q01DX001 (ip), vehicle: saline) of the same molecule?
Answer: 97 % of control

Question: What about the T/C (dose: 400.0 mg/kg/injection, schedule: Q01DX001 (ip), vehicle: saline) of the same molecule?
Answer: 95 % of control

Question: Which results are given for `CC(=O)OC1C(SC(C)(C)C)C=CC(SC(C)(C)C)N1C(C)=O` (centres undefined)?
Answer: T/C [8]: 103 % of control; T/C [9]: 103 % of control; T/C [11]: 95 % of control

Question: What does the source list for `CCOC(=O)c1cnc(SCc2ccccc2)[nH]c1=O`?
Answer: T/C [4]: 101 % of control; T/C [6]: 91 % of control; T/C [7]: 92 % of control

Question: What does the source list for `O=C(Nc1cccc(C2=NCCCN2)c1)Nc1cc(C(=O)Nc2ccc(C3=NCCCN3)cc2)ccc1C(=O)Nc1ccc(C2=NCCCN2)cc1`?
Answer: T/C (dose: 0.47 mg/kg/injection, schedule: Q01DX Z (ip), vehicle: saline): 103 % of control; T/C (dose: 0.94 mg/kg/injection, schedule: Q01DX Z (ip), vehicle: saline): 95 % of control; T/C (dose: 1.88 mg/kg/injection, schedule: Q01DX Z (ip), vehicle: saline): 104 % of control; T/C (dose: 3.75 mg/kg/injection, schedule: Q01DX Z (ip), vehicle: saline): 117 % of control and 265 % of control; T/C (dose: 7.5 mg/kg/injection, schedule: Q01DX Z (oral), vehicle: saline): 98 % of control; T/C (dose: 15.0 mg/kg/injection, schedule: Q01DX Z (ip), vehicle: saline): 96 % of control; T/C (dose: 15.0 mg/kg/injection, schedule: Q01DX Z (oral), vehicle: saline): 104 % of control; T/C (dose: 30.0 mg/kg/injection, schedule: Q01DX Z (oral), vehicle: saline): 104 % of control; T/C (dose: 60.0 mg/kg/injection, schedule: Q01DX Z (oral), vehicle: saline): 104 % of control

Question: Which results are given for `CC1CCC(=C(c2ccccc2)c2ccccc2)C(C)N1C` (centres undefined)?
Answer: T/C (dose: 25.0 mg/kg/injection, schedule: Q01DX009 (ip), vehicle: saline with Tween-80): 98 % of control; T/C (dose: 25.0 mg/kg/injection, schedule: Q04DX003 (ip), vehicle: saline with Tween-80): 107 % of control; T/C (dose: 50.0 mg/kg/injection, schedule: Q01DX009 (ip), vehicle: saline with Tween-80): 98 % of control; T/C (dose: 50.0 mg/kg/injection, schedule: Q04DX003 (ip), vehicle: saline with Tween-80): 96 % of control; T/C [4]: 90 % of control; T/C [5]: 98 % of control and 101 % of control

Question: For `CCCCOC(=O)C(O)C(C)(Cl)c1ccccc1` (centres undefined), which T/C (dose: 100.0 mg/kg/injection, schedule: Q04DX002 (ip), vehicle: Klucel (hydroxypropylcellulose) (HPC)) is on record?
Answer: 106 % of control

Question: And the T/C (dose: 200.0 mg/kg/injection, schedule: Q04DX002 (ip), vehicle: Klucel (hydroxypropylcellulose) (HPC))?
Answer: 103 % of control

Question: What about the T/C (dose: 400.0 mg/kg/injection, schedule: Q04DX002 (ip), vehicle: Klucel (hydroxypropylcellulose) (HPC)) of the same molecule?
Answer: 106 % of control

Question: With `O=C(COc1ccc(Cl)cc1)Nc1cccc(C(F)(F)F)c1` as the molecule, how does the T/C [8] read?
Answer: 96 % of control

Question: And the T/C [3]?
Answer: 102 % of control

Question: What about the T/C [9] of the same molecule?
Answer: 89 % of control

Question: And the T/C [10]?
Answer: 93 % of control

Question: What about the T/C [11] of the same molecule?
Answer: 91 % of control

Question: What about the T/C [12] of the same molecule?
Answer: 93 % of control
